The nature of this series: recombinant UMI read abundance after kanamycin selection (control-corrected) (log10(CPM+1)); higher = more efficient recombination; extreme values may be limits of the assay; sequences stand for … in AGTGCAGAGAAAATCGGCCAGTTTTCTCTGCCTGCAGTCCGCATGCCGTGGGACCCCTTGGGTTCTAACCTGTTGCCTAGATTTATGCAGCGGACTGCCTTTCTCCCAAAGTGATAAACCGG…AGGTTGGTTTCACT; site = the 11-nt donor. Summed up: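 Counts of recombinant UMIs were reported as log10(CPM+1). Before that, they were converted to CPM, averaged over replicates and scaled using control-derived factors. They came from PCR across the donor–target junction after Escherichia coli carrying the pair library and target plasmid was plated on IPTG (0.07 mM) plus kanamycin, or unselected, in two replicates each.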
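Also: IS621 bridge recombinase in Escherichia coli cells against a fixed T5 target plasmid.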

With “GCGGTGTCATGGACCGGTTTTCCCGGTAATCCGTATTTGAA (site GCGGTGTCTTT)”, the “recombinant UMI read abundance (log10)” value came out at 2.41.
With “GCGTATTCATGGACCGGTTTTCCCGGTAATCCGTATTTGCC (site GCGTATTCTGG)” the figure was 2.14.
The same measure for “GCGTATTCATGGACCGGTTTTCCCGGTAATCCGTATTTGTG (site GCGTATTCTCA)”: 2.49.
On to “GCGTCGGCATGGACCGGTTTTCCCGGTAATCCGTATTTGGA (site GCGTCGGCTTC)”, for which the “recombinant UMI read abundance (log10)” value stood at 0.519.
Regarding “GCGTGCCCATGGACCGGTTTTCCCGGTAATCCGTATTTGAT (site GCATGCCCTAT)”, the “recombinant UMI read abundance (log10)” value is 0.417.
With “GCGTGCCCATGGACCGGTTTTCCCGGTAATCCGTATTTGAT (site GCCTGCCCTAT)” the figure was 0.0179; with “GCGTGCCCATGGACCGGTTTTCCCGGTAATCCGTATTTGAT (site GCGTGCCCTAT)”, 0.221.
As for “GCGTGCCCATGGACCGGTTTTCCCGGTAATCCGTATTTGAT (site GCTTGCCCTAT)”, the “recombinant UMI read abundance (log10)” value came to 0.0133.
As to “GCGTTCTCATGGACCGGTTTTCCCGGTAATCCGTATTTGAA (site GCGTTCTCTTT)”, the “recombinant UMI read abundance (log10)” value is 2.47.
The same measure for “GCTACCTCATGGACCGGTTTTCCCGGTAATCCGTATTTGGC (site GCTACCTCTGC)”: 2.47; for “GCTACTGCATGGACCGGTTTTCCCGGTAATCCGTATTTGCA (site GCTACTGCTAG)”: 0.
Consider “GCTACTGCATGGACCGGTTTTCCCGGTAATCCGTATTTGCA (site GCTACTGCTCG)”, for which the “recombinant UMI read abundance (log10)” value is 0.00835.
The same measure for “GCTACTGCATGGACCGGTTTTCCCGGTAATCCGTATTTGCA (site GCTACTGCTGG)”: 0.
As for “GCTACTGCATGGACCGGTTTTCCCGGTAATCCGTATTTGCA (site GCTACTGCTTG)”, the “recombinant UMI read abundance (log10)” value stood at 2.78.
Turning to “GCTACTGCATGGACCGGTTTTCCCGGTAATCCGTATTTGCG (site GCTACTGCTAG)”, the “recombinant UMI read abundance (log10)” value is 0.345.
With “GCTACTGCATGGACCGGTTTTCCCGGTAATCCGTATTTGCG (site GCTACTGCTCG)”, the “recombinant UMI read abundance (log10)” value came out at 1.27.
The same measure for “GCTACTGCATGGACCGGTTTTCCCGGTAATCCGTATTTGCG (site GCTACTGCTGG)”: 0; for “GCTACTGCATGGACCGGTTTTCCCGGTAATCCGTATTTGCG (site GCTACTGCTTG)”: 1.35.
With “GCTACTGCATGGACCGGTTTTCCCGGTAATCCGTATTTGTC (site GCTACTGCTGA)” the figure was 1.83; with “GCTACTGCATGGACCGGTTTTCCCGGTAATCCGTATTTGTC (site GCTACTGCTGC)”, 0.
The same measure for “GCTACTGCATGGACCGGTTTTCCCGGTAATCCGTATTTGTC (site GCTACTGCTGG)”: 0.571; for “GCTACTGCATGGACCGGTTTTCCCGGTAATCCGTATTTGTC (site GCTACTGCTGT)”: 0.512; for “GCTAGAACATGGACCGGTTTTCCCGGTAATCCGTATTTGAG (site ACTAGAACTCT)”: 0.959.
On to “GCTAGAACATGGACCGGTTTTCCCGGTAATCCGTATTTGAG (site CCTAGAACTCT)”, for which the “recombinant UMI read abundance (log10)” value was determined as 0.439.
With “GCTAGAACATGGACCGGTTTTCCCGGTAATCCGTATTTGAG (site GCTAGAACTCT)” the figure was 1.83.
The same measure for “GCTAGAACATGGACCGGTTTTCCCGGTAATCCGTATTTGAG (site TCTAGAACTCT)”: 0.815; for “GCTAGGCCATGGACCGGTTTTCCCGGTAATCCGTATTTGAG (site GCTAGGCCTCT)”: 0.0384.
With “GCTATACCATGGACCGGTTTTCCCGGTAATCCGTATTTGTA (site GCTATACCTTA)” the figure was 0.0042; with “GCTATCTCATGGACCGGTTTTCCCGGTAATCCGTATTTGAA (site GCTATCTCTTT)”, 1.86.
As to “GCTCCTGCATGGACCGGTTTTCCCGGTAATCCGTATTTGCC (site GCTACTGCTGG)”, the “recombinant UMI read abundance (log10)” value was found to be 0.902.
The same measure for “GCTCCTGCATGGACCGGTTTTCCCGGTAATCCGTATTTGCC (site GCTCCTGCTGG)”: 0.921.
Turning to “GCTCCTGCATGGACCGGTTTTCCCGGTAATCCGTATTTGCC (site GCTGCTGCTGG)”, the “recombinant UMI read abundance (log10)” value was 0.
With “GCTCCTGCATGGACCGGTTTTCCCGGTAATCCGTATTTGCC (site GCTTCTGCTGG)” the figure was 0.
As to “GCTGGCCCATGGACCGGTTTTCCCGGTAATCCGTATTTGAT (site GCTAGCCCTAT)”, the “recombinant UMI read abundance (log10)” value stood at 0.0226.
